Measured values: patent US20200170259A1, “COMPOSITIONS AND METHODS FOR INDUCING PLANT GENE EXPRESSION AND ALTERING PLANT MICROBIOME COMPOSITION FOR IMPROVED CROP PERFORMANCE” (ADVANCED BIOLOGICAL MARKETING, INC., priority 2018, published 2020)

Legend:
corn gene expression = assay: RNAseq of corn seedlings, variability of gene expression (FIGS. 17-19); type: in vivo
Text: Plants colonized by Trichoderma show highly focused and reproducible patterns of gene expression. Uncolonized plants show highly variable gene expression. We propose that gene expression in plants colonized by Trichoderma responds specifically to that colonization and further that Trichoderma redirects plant gene expression to more targeted biological processes supporting Trichoderma niche development. Gene expression in uncolonized plants responds to the entire set of environmental factors present with relatively little process hierarchy. FIG. 17 depicts a representation of all gene expression in corn seedlings exposed to various seed treatments versus an untreated seed in both standard and drought conditions. FIG. 17 further groups the applicable replicates in order to convey variability, and data sets refer to principal component analysis, in order to evidence variability. All samples with the exception of the Trichoderma metabolite (1-Octene-3-ol), are root apical meristem (RAM) measurements. The sampling occurred from seeds that were grown for seven days before sampling. Observed variability was high in corn gene expression in standard and drought conditions. (See untreated). […] (see SabrEx and Oct). Thus, untreated plants are busy responding to a lot of environmental factors, Trichoderma strain treatment/1-Octene-3-ol treated plants are controlled somewhat by the treatment, which supports findings in previous RNAseq experiments, where correlation is shown by the reduction in microbiome diversity in the field, in the reduction of error bars in field performance data. This is a clear benefit of Trichoderma strain treatment and metabolite (1-Octene-3-ol). Reduction of variable performance in the field is therefore because the plant gene expression has been remodeled or refined by Trichoderma. FIGS. 18A-B depict multidimensional scaling plots of corn gene expression when colonized by Trichoderma, particularly, 2-Trichoderma strain treatment and untreated in unstressed conditions. […]

rhizosphere inhabitants = conditions: in vivo
Protocol: A survey of rhizosphere inhabitants in a corn trial with control, Trichoderma strain treatment for corn (2 ABM Trichoderma strains), [MUT] (ABM Trichoderma+Bacillus strains), or Trichoderma metabolite (1-Octene-3-ol) seed treatments was made. The organism lifestyle metadata were analyzed for each treatment.

maize gene expression = assay: Differential gene expression (Blast 2Go DGE) in maize versus control (FIGS. 20-25); type: in vivo
Protocol: Turning to FIGS. 20-24, differential gene expression (Blast 2Go DGE) is measured, wherein the corresponding legend of FIG. 20 presents comparison to a control, wherein the higher scale shown (color or patterned), the higher level of upregulation has occurred.
The lab plants were grown in conical tubes with nutrient bath and to simulate osmotic stress from drought they added a polyethylene glycol (PEG) solution to the tubes.
FIG. 25 depicts a table of changes in corn gene expression versus an untreated control in RNAseq experiments of FIGS. 20-24. Reference to “Lab (sterile, no soil)” is the data from the conical tube experiments of FIG. 23 and FIG. 24.

## C=CC(O)CCCCC (centres unmarked) [1-Octene-3-ol]
Corn gene expression; FIGS. 18A-B, unstressed conditions per legend
  Reproducibility of expression pattern (multidimensional scaling plot): generally more reproducible expression pattern than the untreated
Corn gene expression; FIGS. 19A-B, drought conditions per legend
  Reproducibility of expression pattern (multidimensional scaling plot): generally more reproducible expression pattern than the untreated
Corn gene expression; seedlings grown seven days, standard and drought conditions, FIG. 17
  Effect on variability of overall corn gene expression (principal component analysis): focusses gene expression
Rhizosphere inhabitants
  Plant disease resulting from rhizosphere pathogens: did not result in plant disease
Maize gene expression
  Shoot responses upregulated: Abiotic stimulus, water deprivation, and chemical stimulus
